Results from PubChem BioAssay AID1259407 (Chemical Carcinogenesis Research Information System (CCRIS), 2018).
Active and inactive are the calls of the source. The rule behind the calls is not given here.

System: CCRIS mutagenicity, Ames/micronucleus/aberration tests
Test: CCRIS mutagenicity studies
[1] = Test System: AMES SALMONELLA TYPHIMURIUM, Strain/Indicator: TA98, Metabolic Activation: NONE, Method: PREINCUBATION
[2] = Test System: AMES SALMONELLA TYPHIMURIUM, Strain/Indicator: TA98, Metabolic Activation: NONE, Method: STANDARD PLATE
[3] = Test System: AMES SALMONELLA TYPHIMURIUM, Strain/Indicator: TA98, Metabolic Activation: S-9, Method: STANDARD PLATE
[4] = Test System: AMES SALMONELLA TYPHIMURIUM, Strain/Indicator: TA100, Metabolic Activation: NONE, Method: PREINCUBATION
[5] = Test System: AMES SALMONELLA TYPHIMURIUM, Strain/Indicator: TA100, Metabolic Activation: NONE, Method: STANDARD PLATE
[6] = Test System: AMES SALMONELLA TYPHIMURIUM, Strain/Indicator: TA100, Metabolic Activation: S-9, Method: STANDARD PLATE
[7] = Test System: AMES SALMONELLA TYPHIMURIUM, Strain/Indicator: TA1535, Metabolic Activation: NONE, Method: PREINCUBATION
[8] = Test System: AMES SALMONELLA TYPHIMURIUM, Strain/Indicator: TA1537, Metabolic Activation: NONE, Method: PREINCUBATION

## Cc1cc(C(C)(C)C)c(O)c(C(C)(C)C)c1
End Point: IN VITRO CHROMOSOMAL ABERRATIONS, Test System: CHINESE HAMSTER OVARY CELLS, Metabolic Activation: NONE
  mutagenic call: inactive; negative
End Point: IN VITRO CHROMOSOMAL ABERRATIONS, Test System: CHINESE HAMSTER OVARY CELLS, Metabolic Activation: RAT, LIVER, S-9, AROCLOR 1254
  mutagenic call: inactive; negative; dose-related increase but it was not significant
Test System: AMES SALMONELLA TYPHIMURIUM, Strain/Indicator: TA97, Metabolic Activation: NONE, Method: STANDARD PLATE
  mutagenic call: inactive; negative
Test System: AMES SALMONELLA TYPHIMURIUM, Strain/Indicator: TA97, Metabolic Activation: RAT, LIVER, S-9, AROCLOR 1254, Method: STANDARD PLATE
  mutagenic call: inactive; negative
Test System: AMES SALMONELLA TYPHIMURIUM, Strain/Indicator: TA97, Metabolic Activation: RAT, LIVER, S-9, AROCLOR, Method: STANDARD PLATE
  mutagenic call: inactive; negative
[1]
  mutagenic call: inactive; negative
[2]
  mutagenic call: inactive; negative
Test System: AMES SALMONELLA TYPHIMURIUM, Strain/Indicator: TA98, Metabolic Activation: RAT, LIVER, S-9, AROCLOR 1254, Method: STANDARD PLATE
  mutagenic call: inactive; negative
Test System: AMES SALMONELLA TYPHIMURIUM, Strain/Indicator: TA98, Metabolic Activation: RAT, LIVER, S-9, Method: PREINCUBATION
  mutagenic call: inactive; negative
[3]
  mutagenic call: inactive; negative
[4]
  mutagenic call: inactive; negative
[5]
  mutagenic call: inactive; negative
Test System: AMES SALMONELLA TYPHIMURIUM, Strain/Indicator: TA100, Metabolic Activation: RAT, LIVER, S-9, AROCLOR 1254, Method: STANDARD PLATE
  mutagenic call: inactive; negative
Test System: AMES SALMONELLA TYPHIMURIUM, Strain/Indicator: TA100, Metabolic Activation: RAT, LIVER, S-9, AROCLOR, Method: STANDARD PLATE
  mutagenic call: inactive; negative
Test System: AMES SALMONELLA TYPHIMURIUM, Strain/Indicator: TA100, Metabolic Activation: RAT, LIVER, S-9, Method: PREINCUBATION
  mutagenic call: inactive; negative
[6]
  mutagenic call: inactive; negative
Test System: AMES SALMONELLA TYPHIMURIUM, Strain/Indicator: TA102, Metabolic Activation: NONE, Method: STANDARD PLATE
  mutagenic call: inactive; negative
Test System: AMES SALMONELLA TYPHIMURIUM, Strain/Indicator: TA102, Metabolic Activation: RAT LIVER S-9, PHENOBARBITAL AND 5,6-BENZOFLAVONE, Method: STANDARD PLATE
  mutagenic call: inactive; negative
Test System: AMES SALMONELLA TYPHIMURIUM, Strain/Indicator: TA102, Metabolic Activation: RAT, LIVER, S-9, AROCLOR, Method: STANDARD PLATE
  mutagenic call: inactive; negative
Test System: AMES SALMONELLA TYPHIMURIUM, Strain/Indicator: TA104, Metabolic Activation: NONE, Method: PREINCUBATION
  mutagenic call: inactive; negative
Test System: AMES SALMONELLA TYPHIMURIUM, Strain/Indicator: TA104, Metabolic Activation: NONE, Method: STANDARD PLATE
  mutagenic call: inactive; negative
Test System: AMES SALMONELLA TYPHIMURIUM, Strain/Indicator: TA104, Metabolic Activation: RAT, LIVER, S-9, AROCLOR, Method: PREINCUBATION
  mutagenic call: inactive; negative
Test System: AMES SALMONELLA TYPHIMURIUM, Strain/Indicator: TA104, Metabolic Activation: RAT, LIVER, S-9, AROCLOR, Method: STANDARD PLATE
  mutagenic call: inactive; negative
Test System: AMES SALMONELLA TYPHIMURIUM, Strain/Indicator: TA2638, Metabolic Activation: RAT LIVER S-9, PHENOBARBITAL AND 5,6-BENZOFLAVONE, Method: STANDARD PLATE
  mutagenic call: inactive; negative
Test System: E. COLI, Strain/Indicator: WP2 (PKM101), Metabolic Activation: RAT LIVER S-9, PHENOBARBITAL AND 5,6-BENZOFLAVONE, Method: STANDARD PLATE
  mutagenic call: inactive; negative
Test System: E.COLI, Strain/Indicator: WP2 UVRA (PKM101), Metabolic Activation: RAT LIVER S-9, PHENOBARBITAL AND 5,6-BENZOFLAVONE, Method: STANDARD PLATE
  mutagenic call: inactive; negative

## Cc1cccc(C(=O)ON(OCc2ccccc2)C(=O)c2ccccc2)c1
[5]
  mutagenic call: active; positive
Test System: AMES SALMONELLA TYPHIMURIUM, Strain/Indicator: TA100, Metabolic Activation: RAT, S-9, AROCLOR, Method: STANDARD PLATE
  mutagenic call: active; positive

## Nc1nc(N)c2nc(-c3ccccc3)c(N)nc2n1
Test System: AMES SALMONELLA TYPHIMURIUM, Strain/Indicator: TA98, Metabolic Activation: HAMSTER, LIVER, S-9, AROCLOR 1254 (10%), Method: PREINCUBATION
  mutagenic call: inactive; negative
[1]
  mutagenic call: inactive; negative
Test System: AMES SALMONELLA TYPHIMURIUM, Strain/Indicator: TA98, Metabolic Activation: RAT, LIVER, S-9, AROCLOR 1254 (10%), Method: PREINCUBATION
  mutagenic call: inactive; negative
Test System: AMES SALMONELLA TYPHIMURIUM, Strain/Indicator: TA100, Metabolic Activation: HAMSTER, LIVER, S-9, AROCLOR 1254 (10%), Method: PREINCUBATION
  mutagenic call: inactive; negative
[4]
  mutagenic call: inactive; negative
Test System: AMES SALMONELLA TYPHIMURIUM, Strain/Indicator: TA100, Metabolic Activation: RAT, LIVER, S-9, AROCLOR 1254 (10%), Method: PREINCUBATION
  mutagenic call: inactive; negative
Test System: AMES SALMONELLA TYPHIMURIUM, Strain/Indicator: TA1535, Metabolic Activation: HAMSTER, LIVER, S-9, AROCLOR 1254 (10%), Method: PREINCUBATION
  mutagenic call: inactive; negative
[7]
  mutagenic call: inactive; negative
Test System: AMES SALMONELLA TYPHIMURIUM, Strain/Indicator: TA1535, Metabolic Activation: RAT, LIVER, S-9, AROCLOR 1254 (10%), Method: PREINCUBATION
  mutagenic call: inactive; negative
Test System: AMES SALMONELLA TYPHIMURIUM, Strain/Indicator: TA1537, Metabolic Activation: HAMSTER, LIVER, S-9, AROCLOR 1254 (10%), Method: PREINCUBATION
  mutagenic call: inactive; negative
[8]
  mutagenic call: inactive; negative
Test System: AMES SALMONELLA TYPHIMURIUM, Strain/Indicator: TA1537, Metabolic Activation: RAT, LIVER, S-9, AROCLOR 1254 (10%), Method: PREINCUBATION
  mutagenic call: inactive; negative

## CCCN(C(=O)CCCl)c1snc2ccccc12
[2]
  mutagenic call: inactive; negative
[3]
  mutagenic call: inactive; negative
[5]
  mutagenic call: inactive; negative
[6]
  mutagenic call: inactive; negative
Test System: AMES SALMONELLA TYPHIMURIUM, Strain/Indicator: TA1535, Metabolic Activation: NONE, Method: STANDARD PLATE
  mutagenic call: active; positive
Test System: AMES SALMONELLA TYPHIMURIUM, Strain/Indicator: TA1535, Metabolic Activation: S-9, Method: STANDARD PLATE
  mutagenic call: active; positive
Test System: AMES SALMONELLA TYPHIMURIUM, Strain/Indicator: TA1537, Metabolic Activation: NONE, Method: STANDARD PLATE
  mutagenic call: inactive; negative
Test System: AMES SALMONELLA TYPHIMURIUM, Strain/Indicator: TA1537, Metabolic Activation: S-9, Method: STANDARD PLATE
  mutagenic call: inactive; negative

## CO
[1]
  mutagenic call: inactive; negative
Test System: AMES SALMONELLA TYPHIMURIUM, Strain/Indicator: TA98, Metabolic Activation: RAT, LIVER, S-9, KC 500, Method: PREINCUBATION
  mutagenic call: inactive; negative
[4]
  mutagenic call: inactive; negative
Test System: AMES SALMONELLA TYPHIMURIUM, Strain/Indicator: TA100, Metabolic Activation: RAT, LIVER, S-9, KC 500, Method: PREINCUBATION
  mutagenic call: inactive; negative
[7]
  mutagenic call: inactive; negative
Test System: AMES SALMONELLA TYPHIMURIUM, Strain/Indicator: TA1535, Metabolic Activation: RAT, LIVER, S-9, KC 500, Method: PREINCUBATION
  mutagenic call: inactive; negative
[8]
  mutagenic call: inactive; negative
Test System: AMES SALMONELLA TYPHIMURIUM, Strain/Indicator: TA1537, Metabolic Activation: RAT, LIVER, S-9, KC 500, Method: PREINCUBATION
  mutagenic call: inactive; negative
Test System: AMES SALMONELLA TYPHIMURIUM, Strain/Indicator: TA1538, Metabolic Activation: NONE, Method: PREINCUBATION
  mutagenic call: inactive; negative
Test System: AMES SALMONELLA TYPHIMURIUM, Strain/Indicator: TA1538, Metabolic Activation: RAT, LIVER, S-9, KC 500, Method: PREINCUBATION
  mutagenic call: inactive; negative
Test System: E. COLI, Strain/Indicator: WP2 UVRA, Metabolic Activation: NONE, Method: PREINCUBATION
  mutagenic call: inactive; negative
Test System: E. COLI, Strain/Indicator: WP2 UVRA, Metabolic Activation: RAT, LIVER, S-9, KC 500, Method: PREINCUBATION
  mutagenic call: inactive; negative
